According to patent US20220041641A1, “QUATERNARY AMMONIUM SALTS AS INHIBITORS OF TRIMETHYLAMINE PRODUCTION” (Senda Biosciences, Inc., priority 2018, published 2022):
Where a name gives a salt, the structure may show the parent alone. Read-outs that look alike come from different tables or passages of the source.

Target: CutC from Proteus mirabilis (Proteus mirabilis, UniProt B4EYG1)
Assay: Cell-based assay for TMA production from a native producer (P. mirabilis)
From the text: In each bacterium, CutC was modified into its activated form by a cognate activating enzyme, CutD (protein EDU36696.1 for C. sporogenes; protein WP_004249185.1 for P. mirabilis). […] Trimethylamine may subsequently be converted by human enzymes such as flavin monooxygenase 3 to trimethylamine N-oxide, which might be associated with negative health consequences in humans.
A compound's ability to inhibit CutC from Proteus mirabilis and C. sporogenes from converting choline into trimethylamine was tested in cells as described. A BHI blood plate was inoculated with a frozen stock of Proteus mirabilis or Clostridium sporogenes under anaerobic conditions. A single colony was isolated from the plate and inoculated into 5 mL BHI supplemented with 1 mM choline under anaerobic conditions. The liquid cultures were grown overnight at 37° C.
To prepare each sample, 300 μL of the saturated culture was then inoculated into a 30 mL dilution blank under anaerobic conditions. 1 mM (trimethyl-d9)-choline and a sufficient amount of a compound to obtain a final concentration of 10 μM were added to the inoculated dilution blank. […] The mixture was incubated at 37° C. for 5 h. […] After centrifugation, the samples were analyzed by LCMS to determine the amount of d9-TMA produced.

[1] = d9-TMA from 1 mM d9-choline, 5 h, 37° C.; value 10 given when no fit or % TMA remaining at 10 μM higher than 15%; read-out: Average IC50 Whole cell P. mirabilis
[2] = read-out: Average IC50 Whole cell P. mirabilis; d9-TMA from 1 mM d9-choline, 5 h, 37° C.; value 10 given when no fit or % TMA remaining at 10 μM higher than 15%

Chain of CutC from Proteus mirabilis (B4EYG1 entry or part of it): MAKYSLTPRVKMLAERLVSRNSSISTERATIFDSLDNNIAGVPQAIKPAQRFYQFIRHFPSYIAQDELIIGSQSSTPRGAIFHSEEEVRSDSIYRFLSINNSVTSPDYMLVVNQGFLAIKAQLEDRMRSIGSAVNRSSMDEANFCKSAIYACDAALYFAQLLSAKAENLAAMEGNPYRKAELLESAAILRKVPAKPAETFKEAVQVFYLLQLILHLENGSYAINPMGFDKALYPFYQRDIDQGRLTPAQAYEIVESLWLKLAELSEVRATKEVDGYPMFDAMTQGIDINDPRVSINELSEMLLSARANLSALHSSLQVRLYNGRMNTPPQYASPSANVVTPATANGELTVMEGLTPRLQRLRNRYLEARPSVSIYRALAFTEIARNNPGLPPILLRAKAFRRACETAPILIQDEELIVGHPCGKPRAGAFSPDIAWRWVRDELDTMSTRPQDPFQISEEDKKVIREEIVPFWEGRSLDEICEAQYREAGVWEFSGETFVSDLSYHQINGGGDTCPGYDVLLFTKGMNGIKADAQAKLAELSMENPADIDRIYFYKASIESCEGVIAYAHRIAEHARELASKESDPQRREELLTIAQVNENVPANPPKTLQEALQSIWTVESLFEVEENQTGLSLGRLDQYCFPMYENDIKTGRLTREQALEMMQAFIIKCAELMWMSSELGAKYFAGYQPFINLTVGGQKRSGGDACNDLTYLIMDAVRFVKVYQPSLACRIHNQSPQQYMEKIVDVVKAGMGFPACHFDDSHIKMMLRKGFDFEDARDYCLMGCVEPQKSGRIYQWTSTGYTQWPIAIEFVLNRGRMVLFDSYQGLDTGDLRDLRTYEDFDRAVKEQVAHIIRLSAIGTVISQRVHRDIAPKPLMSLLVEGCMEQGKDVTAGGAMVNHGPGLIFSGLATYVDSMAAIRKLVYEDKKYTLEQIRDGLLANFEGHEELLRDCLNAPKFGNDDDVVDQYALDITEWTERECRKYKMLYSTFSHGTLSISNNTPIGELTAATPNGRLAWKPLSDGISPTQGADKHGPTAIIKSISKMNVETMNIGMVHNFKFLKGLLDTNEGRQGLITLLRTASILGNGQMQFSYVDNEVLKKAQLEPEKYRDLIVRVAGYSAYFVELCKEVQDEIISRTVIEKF
Chain of CutC from Proteus mirabilis (B4EYG0 entry or part of it, further chain): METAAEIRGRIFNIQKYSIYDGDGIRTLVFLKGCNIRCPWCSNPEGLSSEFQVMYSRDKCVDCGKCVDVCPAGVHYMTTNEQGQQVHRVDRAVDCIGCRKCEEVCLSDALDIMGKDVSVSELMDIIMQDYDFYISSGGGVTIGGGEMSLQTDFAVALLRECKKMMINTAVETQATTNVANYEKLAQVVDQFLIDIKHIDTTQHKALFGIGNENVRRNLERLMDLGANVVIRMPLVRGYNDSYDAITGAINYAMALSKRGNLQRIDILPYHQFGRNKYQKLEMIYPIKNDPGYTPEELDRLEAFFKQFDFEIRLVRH

| SMILES | IC50 [1] [µM] | IC50 [2] [µM] |
| --- | --- | --- |
| C#CC[N+](C)(C)CC1(C(=O)OC)CC1 [Compound 190, N-((1-(methoxycarbonyl)cyclopropyl)methyl)-N,N-dimethylprop-2-yn-1-aminium Bromide] | 1.28 | – |
| C[N+](C)(C)CC1CC1 [Compound 178, (cyclopropylmethyl)trimethylazanium Iodide] | ≥ 10 | – |
| CSC[N+](C)(C)CCO [Compound 195, (2-hydroxyethyl)dimethyl[(methylsulfanyl)methyl]azanium] | > 10 | – |
| C#CC[N+](C)(C)CC(C)=O [Compound 197, dimethyl(2-oxopropyl)(prop-2-yn-1-yl)azanium Bromide] | 4.97 | – |
| C[N+](C)(CCO)Cc1ccccc1 [Compound 173, benzyl(2-hydroxyethyl)dimethylazanium] | ≥ 10 | – |
| C=CC[N+](C)(C)CCO [Compound 182, (2-hydroxyethyl)dimethyl(prop-2-en-1-yl)azanium Bromide] | 3.15 | – |
| C#CC[N+](C)(C)Cc1ncco1 [Compound 207, dimethyl[(1,3-oxazol-2-yl)methyl](prop-2-yn-1-yl)azanium Chloride] | 0.31 | – |
| C#CC[N+]1(CC(=O)O)CCCCC1 [Compound 160, 1-(carboxymethyl)-1-(prop-2-yn-1-yl)piperidin-1-ium bromide] | ≥ 10 | – |
| CC[N+](C)(CF)CCO (stereo not shown) [Compound 213, ethyl(fluoromethyl)(2-hydroxyethyl)(methyl)azanium Iodide] | 0.18 | – |
| C[N+]1(C)CCOC(O)(C(F)(F)F)C1 (stereo not shown) [Compound 218, 2-hydroxy-4,4-dimethyl-2-(trifluoromethyl)morpholin-4-ium trifluoroacetate] | > 10 | – |
| COCC[N+](C)(C)CF [Compound 228, (fluoromethyl)(2-methoxyethyl)dimethylazanium Iodide] | > 10 | – |
| C[N+]1(CF)CCCC[C@@H]1CO (stereo partly drawn) [Compound 161, (2R)-1-(fluoromethyl)-2-(hydroxymethyl)-1-methylpiperidin-1-ium Iodide] | ≥ 10 | – |
| C[N+](C)(CCO)CCF [Compound 186, (2-fluoroethyl)(2-hydroxyethyl)dimethylazanium] | – | > 10 |
| C#CC[N+]1(CF)CCC[C@H]1CO (stereo partly drawn) [Compound 205, (2S)-1-(fluoromethyl)-2-(hydroxymethyl)-1-(prop-2-yn-1-yl)pyrrolidin-1-ium Iodide] | 8.3 | – |
| C=C(C[N+](C)(C)CF)C(=O)O [Compound 171, (2-carboxy-2-methylideneethyl)(fluoromethyl)dimethylazanium Iodide] | ≥ 10 | – |
| C[N+](C)(CCO)CC1COC1 [Compound 184, (2-hydroxyethyl)dimethyl[(oxetan-3-yl)methyl]azanium Bromide] | > 10 | – |
| C#CC[N+](C)(C)CCO[C@@H]1O[C@H](CO)[C@@H](O)[C@H](O)[C@H]1O [Compound 106, N,N-dimethyl-N-(2-(((3R,4S,5S,6R)-3,4,5-trihydroxy-6-(hydroxymethyl)tetrahydro-2H-pyran-2-yl)oxy)ethyl)prop-2-yn-1-aminium 2,2,2-trifluoroacetate] | ≥ 10 | – |
| C#CC[N+](C)(C)CCP(=O)(OCC)OCC [Compound 202, diethyl {2-[dimethyl(prop-2-yn-1-yl)azaniumyl]ethyl}phosphonate Bromide] | – | 0.242 |
| C#CC[N+]1(CF)CC[C@@H](O)C1 (stereo partly drawn) [Compound 214, (3R)-1-(fluoromethyl)-3-hydroxy-1-(prop-2-yn-1-yl)pyrrolidin-1-ium] | 3.87 | – |
| C#CC[N+](C)(C)Cc1ncno1 [Compound 224] | 0.223 | – |

| SMILES | IC50 [1] [µM] | IC50 [2] [µM] |
| --- | --- | --- |
| C[N+](CF)(CCO)C1CC1 (stereo not shown) [Compound 172, N-(fluoromethyl)-N-(2-hydroxyethyl)-N-methylcyclopropanaminium Iodide] | ≥ 10 | – |
| C#CC[N+](C)(C)CCO[C@H]1CO[C@H]2[C@@H]1OC[C@H]2OCC[N+](C)(C)CC#C [Compound 71, N,N′-((((3R,3aR,6S,6aR)-hexahydrofuro[3,2-b]furan-3,6-diyl)bis(oxy))bis(ethane-2,1-diyl))bis(N,N-dimethylprop-2-yn-1-aminium) bistrifluoroacetate] | ≥ 10 | – |
| C#CC[N+](C)(C)C[C@@H](C)C(=O)OC [Compound 174, [(2R)-3-methoxy-2-methyl-3-oxopropyl]dimethyl(prop-2-yn-1-yl)azanium] | 0.17 | – |
| C#CC[N+](C)(CF)CCO (stereo not shown) [Compound 153, N-(fluoromethyl)-N-(2-hydroxyethyl)-N-methylprop-2-yn-1-aminium Iodide] | 0.02 | – |
| C[N+](C)(CCO)CCCl [Compound 198, (2-chloroethyl)(2-hydroxyethyl)dimethylazanium Iodide] | – | > 10 |
| C#CC[N+](C)(C)CC#C [Compound 165, N,N-dimethyl-N-(prop-2-yn-1-yl)prop-2-yn-1-aminium Bromide] | 2.13 | – |
| C=CC[N+](C)(C)CC(=C)C(=O)OC [Compound 203, N-allyl-2-(methoxycarbonyl)-N,N-dimethylprop-2-en-1-aminium 2,2,2-trifluoroacetate] | 1.72 | – |
| CSCC[N+](C)(C)CF [Compound 229, (fluoromethyl)dimethyl[2-(methylsulfanyl)ethyl]azanium] | > 100 | – |
| C[N+]12CCC(O)(CC1)CC2 [Compound 149, 4-hydroxy-1-methylquinuclidin-1-ium] | ≥ 10 | – |
| C#CC[N+](C)(C)CC1OC1C (stereo not shown) [Compound 181, dimethyl[(3-methyloxiran-2-yl)methyl](prop-2-yn-1-yl)azanium] | > 10 | – |
| C#CC[N+]1(CC#C)CCCC1 [Compound 188, 1,1-bis(prop-2-yn-1-yl)pyrrolidin-1-ium Bromidebromide] | > 10 | – |
| C#CC[N+](C)(C)C[C@@H](C)C(=O)O [Compound 162, (R)—N-(2-carboxypropyl)-N,N-dimethylprop-2-yn-1-aminium Chloride] | 0.29 | – |
| C#CC[N+]1(CC#C)CCCN1 [Compound 201, 1,1-bis(prop-2-yn-1-yl)pyrazolidin-1-ium Bromide] | > 10 | – |
| C#CC[N+](C)(C)CCC(=O)NS(C)(=O)=O [Compound 215, [2-(methanesulfonylcarbamoyl)ethyl]dimethyl(prop-2-yn-1-yl)azanium] | 0.409 | – |
| C[N+](C)(CCO)C(F)F [Compound 193, (difluoromethyl)(2-hydroxyethyl)dimethylazanium] | 1.38 | – |
| C#CC[N+](C)(C)CC(=C)Br [Compound 217, (2-bromoprop-2-en-1-yl)dimethyl(prop-2-yn-1-yl)azanium] | 0.771 | – |
| CC1OC1C[N+](C)(C)C (stereo not shown) [Compound 176, trimethyl[(3-methyloxiran-2-yl)methyl]azanium] | ≥ 10 | – |
| C#CC[N+](C)(C)CC(=O)O[C@H]1CO[C@H]2[C@@H]1OC[C@H]2OC(=O)C[N+](C)(C)CC#C [Compound 69, N,N′-((((3R,3aR,6S,6aR)-hexahydrofuro[3,2-b]furan-3,6-diyl)bis(oxy))bis(2-oxoethane-2,1-diyl))bis(N,N-dimethylprop-2-yn-1-aminium) bistrifluoroacetate] | ≥ 10 | – |
| C=C(CO)C[N+](C)(C)C [Compound 167, (3-hydroxy-2-methylidenepropyl)trimethylazanium trifluoroacetate] | ≥ 10 | – |
| C#CC[N+]1(CCO)CCCCC1 [Compound 154, 1-(2-hydroxyethyl)-1-(prop-2-yn-1-yl)piperidin-1-ium Bromide] | ≥ 10 | – |
